One experiment addresses T1, CB1 receptors (Mus musculus, UniProt P47746).
T1 construct: from tissue
Description: in vivo test (binding ex vivo) in mice after intravenous and/or oral administration. On the procedure: The compounds according to the invention were tested in vivo (binding ex vivo) in mice after intravenous and/or oral administration, according to the experimental conditions described by Rinaldi-Carmona et al. (J. Pharmacol. Exp., 1998, 284, 644-650). […] By the oral route, compounds 2, 3, 4, 11 and 12 have an ED50 of between 1 and 20 mg/kg for the CB1 receptors.

In experiment [1] the target is CB1 cannabinoid receptors (Homo sapiens, UniProt P21554). Particulars: cited from earlier work.

The text below walks through data of patent publication US7521471B2, “4-cyanopyrazole-3-carboxamide derivatives, preparation and application thereof” (Sanofi-Aventis, priority 2003, dated 2009).

CB1 cannabinoid receptors, sequence (P21554 whole entry): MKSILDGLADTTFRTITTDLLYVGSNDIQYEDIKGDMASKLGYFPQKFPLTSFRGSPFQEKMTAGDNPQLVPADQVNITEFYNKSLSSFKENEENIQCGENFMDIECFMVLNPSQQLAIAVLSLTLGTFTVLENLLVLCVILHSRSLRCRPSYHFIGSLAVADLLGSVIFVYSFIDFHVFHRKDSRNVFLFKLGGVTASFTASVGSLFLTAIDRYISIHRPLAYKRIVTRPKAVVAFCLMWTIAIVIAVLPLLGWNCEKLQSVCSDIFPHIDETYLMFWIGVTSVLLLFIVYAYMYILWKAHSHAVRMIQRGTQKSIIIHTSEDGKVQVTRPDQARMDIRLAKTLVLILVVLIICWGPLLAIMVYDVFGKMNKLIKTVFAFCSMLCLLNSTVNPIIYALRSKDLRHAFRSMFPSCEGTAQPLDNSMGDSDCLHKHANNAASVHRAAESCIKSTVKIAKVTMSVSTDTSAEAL
T1 sequence (P47746 whole entry): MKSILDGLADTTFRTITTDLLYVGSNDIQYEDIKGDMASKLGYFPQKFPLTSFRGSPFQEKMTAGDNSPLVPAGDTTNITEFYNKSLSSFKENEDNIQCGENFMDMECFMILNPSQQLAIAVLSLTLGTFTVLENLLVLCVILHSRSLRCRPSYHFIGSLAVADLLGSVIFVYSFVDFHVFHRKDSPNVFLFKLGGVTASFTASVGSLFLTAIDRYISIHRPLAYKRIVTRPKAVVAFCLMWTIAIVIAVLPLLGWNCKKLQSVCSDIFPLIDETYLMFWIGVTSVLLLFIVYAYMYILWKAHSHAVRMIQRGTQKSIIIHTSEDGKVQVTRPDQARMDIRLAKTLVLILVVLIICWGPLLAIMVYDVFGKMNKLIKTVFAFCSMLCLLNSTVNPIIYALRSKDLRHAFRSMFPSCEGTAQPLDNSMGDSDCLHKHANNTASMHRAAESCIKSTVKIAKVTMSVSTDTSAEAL

The compound `CC(C)(C)NC(=O)c1nn(-c2ccc(Cl)cc2Cl)c(-c2ccc(Br)cc2)c1C#N` [Compound 12, 5-(4-Bromophenyl)-4-cyano-1-(2,4-dichlorophenyl)-N-tert-butyl-1H-pyrazole-3-carboxamide] showed an ED50 at CB1 receptors of 1 to 20 mg/kg.
`COc1ccc(-c2c(C#N)c(C(=O)Nc3ccccc3)nn2-c2ccccc2Cl)cc1` [N-phenyl-1-(2-chlorophenyl)-4-cyano-5-(4-methoxyphenyl)-1H-pyrazole-3-carboxamide]: the “properties for the CB1 cannabinoid receptors” value in experiment [1] is recorded as “inverse agonist properties”.
